The nature of test [1]: Antiinflammatory activity in mouse neutrophils assessed as inhibition of LPS-stimulated TNFalpha cytokine expression at 1 ug/ml after 3 hrs by flow cytometeric analysis. It counts as functional. Particulars: Neutrophil.
Test [2] is described as follows: Antiinflammatory activity in mouse neutrophils assessed as inhibition of LPS-stimulated IL-6 expression at 1 ug/ml after 4-5 hrs by ELISA relative to control. Particulars: Neutrophil. It counts as functional.
A short description of test [3]: Antiinflammatory activity in mouse neutrophils assessed as inhibition of LPS-stimulated IL1-beta expression at 1 ug/ml after 4-5 hrs by ELISA relative to control. It counts as functional. Particulars: Neutrophil. A general note: In an ELISA, binding on a coated surface is turned into a signal by an enzyme label.
A short description of test [4]: Antiinflammatory activity in mouse neutrophils assessed as inhibition of LPS-stimulated IL-6 expression at 100 ug/ml after 4-5 hrs by ELISA relative to control. It is filed as functional. Particulars: Neutrophil.
Test [5] in a line: Antiinflammatory activity in mouse neutrophils assessed as inhibition of LPS-stimulated TNFalpha cytokine expression at 100 ug/ml after 3 hrs by flow cytometeric analysis. Particulars: Neutrophil. It counts as functional. (A flow cytometer gives signals particle by particle.)
The nature of test [6]: Antiinflammatory activity in mouse neutrophils assessed as inhibition of LPS-stimulated IL1-beta expression after 4-5 hrs by ELISA relative to control. It is filed as functional, Neutrophil.

These results are taken from ChEMBL document CHEMBL1811867, “Psilostachyin, acetylated pseudoguaianolides and their analogues: preparation and evaluation of their anti-inflammatory potential” (2011).

On to `C=C1C(=O)O[C@@H]2[C@H]1CC[C@H](C)C1=C[C@H](OC(C)=O)C(=O)[C@]12C`, for which, in test [1], the inhibition (as a rule, the change of the read-out against control, counted positive when it falls) at 1 µg/mL was determined as 5.46%. On to `C=C1C(=O)O[C@@H]2[C@H]1CC[C@H](C)C1=C[C@@H](OC(C)=O)C(=O)[C@]12C`, for which the inhibition at 1 µg/mL in test [1] amounted to 2.34%. As for `C=C1C(=O)O[C@@H]2[C@H]1CC[C@H](C)[C@]1(OC(C)=O)C=CC(=O)[C@@]21C`, in test [1], the inhibition at 1 µg/mL is -1.17%.

On to `C=C1C(=O)O[C@@H]2[C@H]1CC[C@H](C)[C@]1(OC(=O)CC)C=CC(=O)[C@@]21C`, for which the inhibition at 1 µg/mL in test [1] was -17.2%. On the same count and under the same terms, then `C=C1C(=O)O[C@@H]2[C@H]1CC[C@H](C)[C@]1(OC(=O)CCC)C=CC(=O)[C@@]21C`, with 14.1%. As for `C=C1C(=O)O[C@@H]2[C@H]1CC[C@H](C)C1=C[C@H](OC(=O)CC)C(=O)[C@]12C`, the inhibition at 1 µg/mL in test [1] is 10.5%.

As to `C=C1C(=O)O[C@@H]2[C@H]1CC[C@H](C)C1=C[C@H](OC(=O)CCC)C(=O)[C@]12C`, the inhibition at 1 µg/mL in test [1] was -6.64%. Still for that read-out and setting: for `C=C1C(=O)O[C@@H]2[C@H]1CC[C@H](C)C1=C[C@@H](OC(=O)CC)C(=O)[C@]12C` the value was -9.37%; for `C=C1C(=O)O[C@@H]2[C@H]1CC[C@H](C)C1=C[C@@H](OC(=O)CCC)C(=O)[C@]12C`, 32%. On to `C=C1C(=O)O[C@@H]2[C@H]1CC[C@H](C)[C@]1(C=CC(=O)O1)[C@@]2(C)O`, for which the inhibition at 1 µg/mL in test [1] was 31.2%.

`C[C@H]1CC[C@@H]2[C@@H](OC(=O)[C@@]23CCN=N3)[C@](C)(O)[C@@]12C=CC(=O)O2`: the results for the inhibition at 1 µg/mL in test [2], in test [3] and in test [1] were 11.3%, 36% and 49.2%, respectively.

With `C=C1C(=O)O[C@@H]2[C@H]1CC[C@H](C)[C@]1(OC(C)=O)C=CC(=O)O[C@@]21C`, the inhibition at 1 µg/mL in test [1] amounted to 16.8%.

`C=C1C(=O)O[C@@H]2[C@H]1CC[C@H](C)[C@]1(OC(=O)CC)C=CC(=O)O[C@@]21C`: in test [1], the inhibition at 1 µg/mL came to 26.9%.

Consider `C=C1C(=O)O[C@@H]2[C@H]1CC[C@H](C)[C@]1(OC(=O)CCC)C=CC(=O)O[C@@]21C`, for which, in test [1], the inhibition at 1 µg/mL is 12.5%. Regarding `C[C@H]1CC[C@@H]2[C@@H](OC(=O)[C@@]23CCN=N3)[C@]2(C)OC(=O)C=C[C@@]12O`, the inhibition at 1 µg/mL in test [2] was found to be 14%; in test [3], 41.4%; in test [1], 59.8%. On to `CC1=C2CC[C@H](C)[C@]3(O)CCC(=O)O[C@@]3(C)[C@@H]2OC1=O`, for which the inhibition at 1 µg/mL in test [2] amounted to 17.1%; in test [3] it was 40.9%; in test [1] it was 53.1%. Regarding `C=C1C(=O)O[C@@H]2[C@H]1CC[C@H](C)[C@]1(O)C=CC(=O)O[C@@]21C`, the inhibition at 1 µg/mL in test [1] came to 41.4%. On the same count and under the same terms, for `C=C1C(=O)O[C@@H]2[C@H]1CC[C@H](C)[C@]1(O)CCC(=O)[C@@]21C` [CORONOPILIN] the value was -7.03%; for `C=C1C(=O)O[C@@H]2[C@H]1CC[C@H](C)[C@]1(O)C=CC(=O)[C@@]21C` [PARTHENIN], -0.39%; for `C=C1C(=O)O[C@@H]2[C@H]1CC[C@H](C)[C@]1(CCC(=O)O1)[C@@]2(C)O` [PSILOSTACHYIN A], 39.5%. For `COc1ccc(C2CNC(=O)C2)cc1OC1CCCC1` (centres undefined) [ROLIPRAM], the figures for the inhibition at 100 µg/mL in test [4] and in test [5] were 36.1% and 71.5%, respectively. Also, in test [6], the “inhibition (INH)” value is 64.27%.
